In US4292317A, “1,4-Dihydro-quinoline-3-carboxylic acid derivatives, process for their preparation and compositions containing them” (Laboratorie Roger Bellon, priority 1977, dated 1981):
≈ marks a conversion by molar mass, not a printed value. Read-outs that look alike come from different tables or passages of the source.

How the values were obtained:
Assay type in all cases: cell-based
Pr. morganii A.236 = assay: M.I.C. in vitro, nutrient agar dilution; conditions: Morganella morganii, 18 h; Table 2; Pr. morganii A.236 (Gram negative); read-out: M.I.C.
Description: (§1) After sterilisation at 120° C., the pH was 6.8.
(§2) The minimum inhibitory concentrations (M.I.C.) were determined by dilution of the test compounds in this mixture, the concentration ranging from 0.05 to 100 μg/cm^3 in a geometric progression with a factor of 2.
(§3) The inoculation of the dishes was carried out by means of a multiple inoculator with 10^-3 dilutions of 18 hour old broth cultures.
(§4) The dishes were placed in an oven at 37° C. and the readings were taken afer an incubation time of 18 hours. The M.I.C. was taken as the lowest concentration which inhibited a culture.

Serratia = assay: M.I.C. in vitro, nutrient agar dilution; conditions: 18 h, Table 2, Berratia (Gram negative), read-out: M.I.C.
Description: as §1, §2, §3, §4

Klebs. pneum. 10.031 = assay: M.I.C. in vitro, nutrient agar dilution; conditions: 18 h; Table 2; Klebs. pneum. 10.031 (Gram negative); read-out: M.I.C.
Description: as §1, §2, §3, §4

B. subtilis = assay: M.I.C. in vitro, nutrient agar dilution; conditions: Bacillus subtilis, 18 h; Table 2; B. subtilis (Gram positive); read-out: M.I.C.
Description: as §1, §2, §3, §4

Strepto A 561 = assay: M.I.C. in vitro, nutrient agar dilution; conditions: 18 h; Table 2; Strepto A 561 (Gram positive)
Description: as §1, §2, §3, §4

Ps. aeruginosa 72.345 = assay: M.I.C. in vitro, nutrient agar dilution; conditions: Pseudomonas aeruginosa, 18 h; Table 2; Ps. aeruginosa 72.345 (Gram negative); read-out: M.I.C.
Description: as §1, §2, §3, §4

Staph. 9.144 = assay: M.I.C. in vitro, nutrient agar dilution; conditions: 18 h; Table 2; Staph. 9.144 (Gram positive); read-out: M.I.C.
Description: as §1, §2, §3, §4

Sh. sonnei I.P.S. = assay: M.I.C. in vitro, nutrient agar dilution; conditions: Shigella sonnei, 18 h
Description: as §1, §2, §3, §4

Pr. vulgaris 12-53 = assay: M.I.C. in vitro, nutrient agar dilution; conditions: Proteus vulgaris, 1253, 18 h; Table 2; Pr. vulgaris 12-53 (Gram negative); read-out: M.I.C.
Description: as §1, §2, §3, §4

Esch. coli 95 I.S.M. = assay: M.I.C. in vitro, nutrient agar dilution; conditions: Escherichia coli, 18 h; Table 2; Esch. coli 95 I.S.M. (Gram negative); read-out: M.I.C.
Description: as §1, §2, §3, §4

Staph. 209 P = assay: M.I.C. in vitro, nutrient agar dilution; conditions: 18 h; Table 2; Staph. 209 P (Gram positive); read-out: M.I.C.
Description: as §1, §2, §3, §4

Esch. coli 111 B4 = assay: M.I.C. in vitro, nutrient agar dilution; conditions: Escherichia coli, 18 h; Table 2; Esch. coli 111 B4 (Gram negative)
Description: as §1, §2, §3, §4

Bord. bronchis. 4.617 = assay: M.I.C. in vitro, nutrient agar dilution; conditions: 18 h; Table 2; Bord. bronchis. 4.617 (Gram negative); read-out: M.I.C.
Description: as §1, §2, §3, §4

Providentia 0223 = assay: M.I.C. in vitro, nutrient agar dilution; conditions: 18 h; Table 2; Providentia 0223 (Gram negative); read-out: M.I.C.
Description: as §1, §2, §3, §4

Arizona 6.211 = assay: M.I.C. in vitro, nutrient agar dilution; conditions: 18 h; Table 2; Arizona 6.211 (Gram negative); read-out: M.I.C.
Description: as §1, §2, §3, §4

Pr. mirabilis Nig = assay: M.I.C. in vitro, nutrient agar dilution; conditions: Proteus mirabilis, 18 h; Table 2; Pr. mirabilis Nig (Gram negative); read-out: M.I.C.
Description: as §1, §2, §3, §4

S. oranienburg 1066 = assay: M.I.C. in vitro, nutrient agar dilution; conditions: Salmonella enterica, 18 h; Table 2; S. oranienburg 1066 (Gram negative); read-out: M.I.C.
Description: as §1, §2, §3, §4

S. enteritidis Danysz = assay: M.I.C. in vitro, nutrient agar dilution; conditions: Salmonella enterica, 18 h; Table 2; S. enteritidis Danysz (Gram negative); read-out: M.I.C.
Description: as §1, §2, §3, §4

Esch. coli 54.127 O.M.S. = assay: M.I.C. in vitro, nutrient agar dilution; conditions: Escherichia coli, 18 h; Table 2; Esch. coli 54.127 O.M.S. (Gram negative); read-out: M.I.C.
Description: as §1, §2, §3, §4

Strepto D.M. 19 = assay: M.I.C. in vitro, nutrient agar dilution; conditions: 18 h; Table 2; Strepto D.M. 19 (Gram positive); read-out: M.I.C.
Description: as §1, §2, §3, §4

Ps. aeruginosa A.22 = assay: M.I.C. in vitro, nutrient agar dilution; conditions: Pseudomonas aeruginosa, 18 h; Table 2; Ps. aeruginosa A.22 (Gram negative); read-out: M.I.C.
Description: as §1, §2, §3, §4

Salm. typhi 0901 = assay: microbe, parasite or virus in culture; conditions: Salmonella enterica, 18 h; Table 2; Salm. typhi 0901 (Gram negative)
Description: as §1, §2, §3, §4

[1] = Table 2, Sh. sonnei I.P.S. (Gram negative), read-out: M.I.C.

SMILES | MIC (Pr. morganii A.236) [µg/mL] | MIC (Serratia) [µg/mL] | MIC (Klebs. pneum. 10.031) [µg/mL] | MIC (B. subtilis) [µg/mL] | MIC (Strepto A 561) [µg/mL] | MIC (Ps. aeruginosa 72.345) [µg/mL] | MIC (Staph. 9.144) [µg/mL] | MIC (Pr. vulgaris 12-53) [µg/mL] | MIC (Esch. coli 95 I.S.M.) [µg/mL] | MIC (Staph. 209 P) [µg/mL] | MIC (Esch. coli 111 B4) [µg/mL] | MIC (Bord. bronchis. 4.617) [µg/mL] | MIC (Providentia 0223) [µg/mL] | MIC (Arizona 6.211) [µg/mL] | MIC (Pr. mirabilis Nig) [µg/mL] | MIC (S. oranienburg 1066) [µg/mL] | MIC (S. enteritidis Danysz) [µg/mL] | MIC (Esch. coli 54.127 O.M.S.) [µg/mL] | MIC (Strepto D.M. 19) [µg/mL] | MIC (Ps. aeruginosa A.22) [µg/mL] | further results
CCn1cc(C(=O)O)c(=O)c2cc(Cl)c(N3CCN(C)CC3)cc21 [Example 1, 6-Chloro-1-ethyl-7-(4-methylpiperazinyl)-4-oxo-1,4-dihydro-quinoline-3-carboxylic acid] | 0.2 to 0.8 (≈ 0.572 to 2.29 µM) | 1.6 to 3.1 (≈ 4.57 to 8.86 µM) | 0.2 (≈ 0.572 µM) | 0.2 to 0.4 (≈ 0.572 to 1.14 µM) | 12.5 to 50 (≈ 35.7 to 143 µM) | 3.1 to 6.2 (≈ 8.86 to 17.7 µM) | 0.4 to 1.6 (≈ 1.14 to 4.57 µM) | 0.4 to 1.6 (≈ 1.14 to 4.57 µM) | 0.4 to 0.8 (≈ 1.14 to 2.29 µM) | 0.4 (≈ 1.14 µM) | 0.2 to 0.4 (≈ 0.572 to 1.14 µM) | 1.6 to 6.2 (≈ 4.57 to 17.7 µM) | 3.1 to 12.5 (≈ 8.86 to 35.7 µM) | 0.2 to 0.8 (≈ 0.572 to 2.29 µM) | 0.4 to 0.8 (≈ 1.14 to 2.29 µM) | 12.5 to 25 (≈ 35.7 to 71.5 µM) | 0.4 to 1.6 (≈ 1.14 to 4.57 µM) | 0.2 to 0.4 (≈ 0.572 to 1.14 µM) | 1.6 to 3.1 (≈ 4.57 to 8.86 µM) | 3.1 to 6.2 (≈ 8.86 to 17.7 µM) | MIC (Sh. sonnei I.P.S.): 0.2 to 0.85 µg/mL (≈ 0.572 to 2.43 µM); MIC (Salm. typhi 0901): 0.4 to 1.6 µg/mL (≈ 1.14 to 4.57 µM)
CCn1cc(C(=O)O)c(=O)c2cc(Cl)c(N3CCNCC3)cc21 [Example 3, 6-Chloro-1-ethyl-4-oxo-7-piperazinyl-1,4-dihydro-quinoline-3-carboxylic acid] | 0.2 (≈ 0.596 µM) | 3.1 to 12.5 (≈ 9.23 to 37.2 µM) | 0.2 (≈ 0.596 µM) | 0.2 to 0.4 (≈ 0.596 to 1.19 µM) | 6.2 (≈ 18.5 µM) | 1.6 to 3.1 (≈ 4.76 to 9.23 µM) | 0.4 (≈ 1.19 µM) | 0.2 (≈ 0.596 µM) | 0.2 (≈ 0.596 µM) | 0.4 to 0.8 (≈ 1.19 to 2.38 µM) | 0.2 (≈ 0.596 µM) | 0.2 to 12.5 (≈ 0.596 to 37.2 µM) | 1.6 to 3.1 (≈ 4.76 to 9.23 µM) | 0.2 (≈ 0.596 µM) | 0.2 (≈ 0.596 µM) | 6.2 to 12.5 (≈ 18.5 to 37.2 µM) | 0.2 (≈ 0.596 µM) | 0.2 (≈ 0.596 µM) | 1.6 to 3.1 (≈ 4.76 to 9.23 µM) | 1.6 to 3.1 (≈ 4.76 to 9.23 µM) | MIC (Sh. sonnei I.P.S.; [1]): 0.2 µg/mL (≈ 0.596 µM); MIC (Salm. typhi 0901): 0.2 µg/mL (≈ 0.596 µM)
CCn1cc(C(=O)O)c(=O)c2cc(Cl)c(N3CCN(CCO)CC3)cc21 [Example 4, 6-chloro-1-ethyl-7-[4-(β-hydroxyethyl)-piperazinyl]-4-oxo-1,4-dihydro-quinoline-3-carboxylic acid] | 1.6 (≈ 4.21 µM) | 25 (≈ 65.8 µM) | 0.4 (≈ 1.05 µM) | 6.2 (≈ 16.3 µM) | 6.2 (≈ 16.3 µM) | 12.5 (≈ 32.9 µM) | 0.4 (≈ 1.05 µM) | 1.6 (≈ 4.21 µM) | 1.6 (≈ 4.21 µM) | 0.4 (≈ 1.05 µM) | 3.1 (≈ 8.16 µM) | 6.2 (≈ 16.3 µM) | 25 (≈ 65.8 µM) | 1.6 (≈ 4.21 µM) | 3.1 (≈ 8.16 µM) | 25 (≈ 65.8 µM) | 3.1 (≈ 8.16 µM) | 3.1 (≈ 8.16 µM) | 6.2 (≈ 16.3 µM) | 12.5 (≈ 32.9 µM) | MIC (Sh. sonnei I.P.S.; [1]): 0.8 µg/mL (≈ 2.11 µM); MIC (Salm. typhi 0901): 3.1 µg/mL (≈ 8.16 µM)
CCn1cc(C(=O)O)c(=O)c2cc(Cl)c(N3CCN(Cc4ccccc4)CC3)cc21 [Example 5, 7-(4-Benzylpiperazinyl)-6-chloro-1-ethyl-4-oxo-1,4-dihydro-quinoline-3-carboxylic acid] | 3.1 (≈ 7.28 µM) | 3.1 (≈ 7.28 µM) | 0.4 (≈ 0.939 µM) | 0.4 (≈ 0.939 µM) | 6.2 (≈ 14.6 µM) | 25 (≈ 58.7 µM) | 0.8 (≈ 1.88 µM) | 6.2 (≈ 14.6 µM) | 3.1 (≈ 7.28 µM) | 0.2 (≈ 0.47 µM) | 3.1 (≈ 7.28 µM) | 12.5 (≈ 29.3 µM) | 50 (≈ 117 µM) | 3.1 (≈ 7.28 µM) | 6.2 (≈ 14.6 µM) | 100 (≈ 235 µM) | 6.2 (≈ 14.6 µM) | 6.2 (≈ 14.6 µM) | 6.2 (≈ 14.6 µM) | 25 (≈ 58.7 µM) | MIC (Sh. sonnei I.P.S.; [1]): 1.6 µg/mL (≈ 3.76 µM); MIC (Salm. typhi 0901): 6.2 µg/mL (≈ 14.6 µM)
CCn1cc(C(=O)O)c(=O)c2cc(Cl)c(N3CCOCC3)cc21 [Example 7, 6-Chloro-1-ethyl-7-morpholino-4-oxo-1,4-dihydro-quinoline-3-carboxylic acid] | 0.8 (≈ 2.38 µM) | 0.8 (≈ 2.38 µM) | 0.2 (≈ 0.594 µM) | 0.2 (≈ 0.594 µM) | 100 (≈ 297 µM) | 6.2 (≈ 18.4 µM) | 0.4 (≈ 1.19 µM) | 0.8 (≈ 2.38 µM) | 1.6 (≈ 4.75 µM) | 0.2 (≈ 0.594 µM) | 3.1 (≈ 9.2 µM) | 12.5 (≈ 37.1 µM) | > 100 | 1.6 (≈ 4.75 µM) | 1.6 (≈ 4.75 µM) | > 100 | 3.1 (≈ 9.2 µM) | 3.1 (≈ 9.2 µM) | 50 (≈ 148 µM) | 12.5 (≈ 37.1 µM) | MIC (Sh. sonnei I.P.S.; [1]): 0.8 µg/mL (≈ 2.38 µM); MIC (Salm. typhi 0901): 3.1 µg/mL (≈ 9.2 µM)
